This is an account of results in ChEMBL document CHEMBL3872220, “Amphiphilic xanthones as a potent chemical entity of anti-mycobacterial agents with membrane-targeting properties” (Eur J Med Chem, 2016).

Assay [1] deals with Mycobacterium tuberculosis variant bovis. The assay can be described thus: Antimycobacterial activity against Mycobacterium bovis BCG ATCC 35734 assessed as ATP leakage by measuring intracellular ATP at 1 MIC measured immediatey after addition of compounds by luciferase reporter gene assay. The format is functional, Mycobacterium tuberculosis variant bovis BCG. Background: Reporter assays use an easily measured gene product as a stand-in for the process of interest.

For assay [2] the test system is unchanged. As to the kind of experiment: Antimycobacterial activity against Mycobacterium bovis BCG ATCC 35734 assessed as ATP leakage by measuring extracellular ATP at 2 times MIC measured at 24 hrs post dose by luciferase reporter gene assay. The format is functional, Mycobacterium tuberculosis variant bovis BCG.
For assay [3] the test system is unchanged. The assay can be described thus: Antimycobacterial activity against Mycobacterium bovis BCG ATCC 35734 assessed as ATP leakage by measuring intracellular ATP at 1 MIC measured at 6 hrs post dose by luciferase reporter gene assay. The format is functional, Mycobacterium tuberculosis variant bovis BCG.
Assay [4] has the same test system. As to the kind of experiment: Antimycobacterial activity against Mycobacterium bovis BCG ATCC 35734 assessed as ATP leakage by measuring extracellular ATP at 4 times MIC measured at 3 hrs post dose by luciferase reporter gene assay. The format is functional, Mycobacterium tuberculosis variant bovis BCG.
The test system is the same in assay [5]. As to the kind of experiment: Antimycobacterial activity against Mycobacterium bovis BCG ATCC 35734 assessed as ATP leakage by measuring extracellular ATP at 1 MIC measured at 6 hrs post dose by luciferase reporter gene assay. The format is functional, Mycobacterium tuberculosis variant bovis BCG.
The test system is the same in assay [6]. As to the kind of experiment: Antimycobacterial activity against Mycobacterium bovis BCG ATCC 35734 assessed as ATP leakage by measuring intracellular ATP at 4 times MIC measured at 9 hrs post dose by luciferase reporter gene assay. The format is functional, Mycobacterium tuberculosis variant bovis BCG.
Assay [7] has the same test system. The assay can be described thus: Antimycobacterial activity against Mycobacterium bovis BCG ATCC 35734 assessed as ATP leakage by measuring extracellular ATP at 1 MIC measured at 3 hrs post dose by luciferase reporter gene assay. The format is functional, Mycobacterium tuberculosis variant bovis BCG.
The test system is the same in assay [8]. The assay can be described thus: Antimycobacterial activity against Mycobacterium bovis BCG ATCC 35734 assessed as ATP leakage by measuring intracellular ATP at 1 MIC measured at 9 hrs post dose by luciferase reporter gene assay. The format is functional, Mycobacterium tuberculosis variant bovis BCG.
Assay [9] shares this test system. As to the kind of experiment: Antimycobacterial activity against Mycobacterium bovis BCG ATCC 35734 assessed as ATP leakage by measuring intracellular ATP at 0.5 times MIC measured immediatey after addition of compounds by luciferase reporter gene assay. The format is functional, Mycobacterium tuberculosis variant bovis BCG.
The test system is the same in assay [10]. The assay can be described thus: Antimycobacterial activity against Mycobacterium bovis BCG ATCC 35734 assessed as ATP leakage by measuring intracellular ATP at 2 times MIC measured at 9 hrs post dose by luciferase reporter gene assay. The format is functional, Mycobacterium tuberculosis variant bovis BCG.
The test system is the same in assay [11]. The assay can be described thus: Antimycobacterial activity against Mycobacterium bovis BCG ATCC 35734 assessed as ATP leakage by measuring extracellular ATP at 4 times MIC measured at 24 hrs post dose by luciferase reporter gene assay. The format is functional, Mycobacterium tuberculosis variant bovis BCG.
The test system is the same in assay [12]. As to the kind of experiment: Induction of membrane disruption in Mycobacterium bovis BCG ATCC 35734 at 60 uM up to 3 hrs by Sytox green uptake assay. The format is functional.
Assay [13] shares this test system. As to the kind of experiment: Antimycobacterial activity against Mycobacterium bovis BCG ATCC 35734 assessed as ATP leakage by measuring extracellular ATP at 1 MIC measured at 1 hr post dose by luciferase reporter gene assay. The format is functional, Mycobacterium tuberculosis variant bovis BCG.
Assay [14] has the same test system. As to the kind of experiment: Antimycobacterial activity against Mycobacterium bovis BCG ATCC 35734 assessed as ATP leakage by measuring intracellular ATP at 0.5 times MIC measured at 6 hrs post dose by luciferase reporter gene assay. The format is functional, Mycobacterium tuberculosis variant bovis BCG.
Assay [15] has the same test system. The assay can be described thus: Antimycobacterial activity against Mycobacterium bovis BCG ATCC 35734 assessed as ATP leakage by measuring intracellular ATP at 2 times MIC measured immediatey after addition of compounds by luciferase reporter gene assay. The format is functional, Mycobacterium tuberculosis variant bovis BCG.
Assay [16] shares this test system. As to the kind of experiment: Induction of membrane integrity impairment in Mycobacterium bovis BCG ATCC 35734 assessed as pH shift at 30 uM after 3 hrs by dye based fluorescence spectroscopic method relative to control. The format is functional, Mycobacterium tuberculosis variant bovis BCG.
For assay [17] the test system is unchanged. As to the kind of experiment: Antimycobacterial activity against Mycobacterium bovis BCG ATCC 35734 assessed as ATP leakage by measuring intracellular ATP at 2 times MIC measured at 24 hrs post dose by luciferase reporter gene assay. The format is functional, Mycobacterium tuberculosis variant bovis BCG.
Assay [18] has the same test system. As to the kind of experiment: Antimycobacterial activity against Mycobacterium bovis BCG ATCC 35734 assessed as ATP leakage by measuring intracellular ATP at 0.5 times MIC measured at 3 hrs post dose by luciferase reporter gene assay. The format is functional, Mycobacterium tuberculosis variant bovis BCG.
For assay [19] the test system is unchanged. As to the kind of experiment: Antimycobacterial activity against Mycobacterium bovis BCG ATCC 35734 assessed as ATP leakage by measuring extracellular ATP at 0.5 times MIC measured at 6 hrs post dose by luciferase reporter gene assay. The format is functional, Mycobacterium tuberculosis variant bovis BCG.
For assay [20] the test system is unchanged. The assay can be described thus: Antimycobacterial activity against Mycobacterium bovis BCG ATCC 35734 assessed as ATP leakage by measuring intracellular ATP at 2 times MIC measured at 3 hrs post dose by luciferase reporter gene assay. The format is functional, Mycobacterium tuberculosis variant bovis BCG.
Assay [21] shares this test system. As to the kind of experiment: Bactericidal activity against Mycobacterium bovis BCG ATCC 35734 assessed as log reduction in bacterial colonies at 4 times MIC measured after 3 hrs by time-kill assay. The format is functional, Mycobacterium tuberculosis variant bovis BCG.
The test system is the same in assay [22]. As to the kind of experiment: Bactericidal activity against Mycobacterium bovis BCG ATCC 35734 assessed as log reduction in bacterial colonies measured up to 24 hrs by time-kill assay. The format is functional.
Assay [23] shares this test system. The assay can be described thus: Bactericidal activity against Mycobacterium bovis BCG ATCC 35734 measured after 14 days by time-kill assay. The format is functional.
Assay [24] shares this test system. The assay can be described thus: Bactericidal activity against Mycobacterium bovis BCG ATCC 35734 assessed as log reduction in bacterial colonies at 4 times MIC measured after 24 hrs by time-kill assay. The format is functional, Mycobacterium tuberculosis variant bovis BCG.

The source made the active and inactive calls. The rule behind the calls is not given here.

`CCN(CC)CCCCOc1cc2oc3cc(OCCCCN(CC)CC)c(OC)c(CC=C(C)C)c3c(=O)c2c(O)c1CC=C(C)C`: the Activity worked out at 98% in assay [1]; 94.1% in assay [2]; 29.3% in assay [3]; 89.6% in assay [4]; 70.7% in assay [5]; 5.5% in assay [6]. Further, the Activity in assay [7] stood at 66.1%; in assay [8], 14.7%; in assay [9], 100%; in [10], 7.2%; in [11] it was 93.2%; in [13], 24.9%. For the same compound, the Activity in assay [14] is recorded as 77.1%; in assay [15], 96.4%; in assay [16] it was 20%; in assay [17] it was 5.9%; in assay [18] it was 72.6%; in [19] it was 22.9%. In addition, the Activity in assay [20] is 16.4%. Besides, the outcome in assay [12] was Active.

Regarding `CCCN(CCC)CCCCOc1cc2oc3cc(OCCCCN(CCC)CCC)c(OC)c(CC=C(C)C)c3c(=O)c2c(O)c1CC=C(C)C`, the Activity was found to be 97.5% in assay [1]; 70.5% in [2]; 69.6% in [3]; 1.5 in [21]; 42.1% in [4]; 30.4% in [5]. In addition, the Activity in [6] is recorded as 16%; in assay [7] it was 24.2%; in assay [8], 51.5%; in assay [9], 100%; in assay [10] it was 24.7%; in [11], 85.2%. The Activity turned out to be 13.2% in [13]; 72% in assay [14]; 97.8% in [15]; 76.6% in assay [16]; 29.5% in assay [17]; 79.9% in assay [18]. Moreover, the Activity entry was “Dose-dependent effect” in assay [22], 28% in assay [19], 55.8% in assay [20] and “Dose-dependent effect” in assay [23].

As for `COc1c(OCCCCN2CCOCC2)cc2oc3cc(OCCCCN4CCOCC4)c(CC=C(C)C)c(O)c3c(=O)c2c1CC=C(C)C`, the Activity is on record as 95.3% in assay [1]; 50.2% in [2]; 85.6% in assay [3]; 33.4% in [4]; 14.4% in assay [5]; 41.6% in [6]. Further, the Activity in assay [7] stood at 7.7%; in assay [8], 86.5%; in assay [9], 100%; in [10] it was 66.9%; in assay [11] it was 68.5%; in assay [13] it was 11.5%. In addition, the Activity is recorded as 91.4% in assay [14]; 91.9% in assay [15]; 49.8% in [17]; 91.4% in [18]; 8.6% in assay [19]; 80% in assay [20]. Besides, the Activity in [24] came to 3.3.
